Assay results reported in the supplement of paper PMC13207355.

Tests used:
Conditions in all cases: exposure time: 72 h
[1] = system: E21 (patient-derived glioblastoma stem cells of mesenchymal subtype); assay: phenotypic distance (Euclidean, principal components) from DMSO controls (arbitrary units); higher = stronger morphological change
[2] = system: E28 (patient-derived glioblastoma stem cells of classical subtype); assay: as above
[3] = system: E31 (patient-derived glioblastoma stem cells of proneural subtype); assay: as above
[4] = system: E57 (patient-derived glioblastoma stem cells of mesenchymal subtype); assay: as above
[5] = system: FT3469 (normal neural stem cell line); assay: as above
[6] = system: E13 (patient-derived glioblastoma stem cells of classical subtype); assay: as above
[7] = system: E34 (patient-derived glioblastoma stem cells of proneural subtype); assay: as above
[8] = system: E21; assay: surviving fraction (nuclei count normalised to DMSO); higher = more cells surviving (less toxic)
[9] = system: E28; assay: as above
[10] = system: E31; assay: as above
[11] = system: E57; assay: as above
[12] = system: FT3469; assay: as above
[13] = system: E13; assay: as above
[14] = system: E34; assay: as above
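Wherever phenotypic distance (Euclidean, principal components) from DMSO controls is given: cell Painting imaging in 384-well plates, CellProfiler features reduced to at least 20 principal components, Euclidean distance versus same-plate DMSO vehicle wells (0.1% v/v), median over six images per well.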
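Wherever surviving fraction (nuclei count normalised to DMSO) is given: nuclei counted by high-content imaging of Hoechst-stained cells in laminin-coated 384-well plates, relative to 0.1% DMSO vehicle wells, with staurosporine as cell-death control.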

CCCCCCNC(=O)n1cc(F)c(=O)[nH]c1=O [Carmofur]
Conditions | phenotypic distance | surviving fraction
[1], 4.1 nM | 0.484 | –
[1], 12.3 nM | 0.616 | –
[1], 37 nM | 0.756 | –
[1], 111.1 nM | 0.906 | –
[1], 333.3 nM | 0.649 | –
[1], 1000 nM | 0.744 | –
[1], 3000 nM | 1.09 | –
[2], 4.1 nM | 0.928 | –
[2], 12.3 nM | 1.13 | –
[2], 37 nM | 1.26 | –
[2], 111.1 nM | 0.901 | –
[2], 333.3 nM | 0.775 | –
[2], 1000 nM | 1.21 | –
[2], 3000 nM | 1.55 | –
[3], 4.1 nM | 0.818 | –
[3], 12.3 nM | 0.955 | –
[3], 37 nM | 1.02 | –
[3], 111.1 nM | 0.782 | –
[3], 333.3 nM | 0.838 | –
[3], 1000 nM | 0.811 | –
[3], 3000 nM | 0.874 | –
[4], 4.1 nM | 0.989 | –
[4], 12.3 nM | 0.918 | –
[4], 37 nM | 0.681 | –
[4], 111.1 nM | 0.66 | –
[4], 333.3 nM | 0.538 | –
[4], 1000 nM | 0.74 | –
[4], 3000 nM | 1.04 | –
[5], 4.1 nM | 0.889 | –
[5], 12.3 nM | 2.05 | –
[5], 37 nM | 1.22 | –
[5], 111.1 nM | 3.24 | –
[5], 333.3 nM | 0.832 | –
[5], 1000 nM | 0.844 | –
[5], 3000 nM | 1.47 | –
[6], 4.1 nM | 0.618 | –
[6], 12.3 nM | 0.582 | –
[6], 37 nM | 0.585 | –
[6], 111.1 nM | 0.446 | –
[6], 333.3 nM | 0.744 | –
[6], 1000 nM | 0.529 | –
[6], 3000 nM | 0.786 | –
[7], 4.1 nM | 3.48 | –
[7], 12.3 nM | 1.19 | –
[7], 37 nM | 0.943 | –
[7], 111.1 nM | 1.13 | –
[7], 333.3 nM | 0.621 | –
[7], 1000 nM | 0.627 | –
[7], 3000 nM | 0.693 | –
[8], 4.1 nM | – | 0.952
[8], 12.3 nM | – | 0.91
[8], 37 nM | – | 0.9
[8], 111.1 nM | – | 0.957
[8], 333.3 nM | – | 0.927
[8], 1000 nM | – | 0.955
[8], 3000 nM | – | 0.877
[9], 4.1 nM | – | 1.02
[9], 12.3 nM | – | 1.19
[9], 37 nM | – | 0.916
[9], 111.1 nM | – | 0.949
[9], 333.3 nM | – | 1.1
[9], 1000 nM | – | 1.26
[9], 3000 nM | – | 0.731
[10], 4.1 nM | – | 0.889
[10], 12.3 nM | – | 0.903
[10], 37 nM | – | 0.826
[10], 111.1 nM | – | 0.961
[10], 333.3 nM | – | 0.894
[10], 1000 nM | – | 1.07
[10], 3000 nM | – | 0.875
[11], 4.1 nM | – | 0.882
[11], 12.3 nM | – | 0.903
[11], 37 nM | – | 0.919
[11], 111.1 nM | – | 0.922
[11], 333.3 nM | – | 1.02
[11], 1000 nM | – | 0.954
[11], 3000 nM | – | 0.85
[12], 4.1 nM | – | 0.763
[12], 12.3 nM | – | 0.995
[12], 37 nM | – | 0.811
[12], 111.1 nM | – | 0.832
[12], 333.3 nM | – | 0.955
[12], 1000 nM | – | 0.915
[12], 3000 nM | – | 0.649
[13], 4.1 nM | – | 0.99
[13], 12.3 nM | – | 1.04
[13], 37 nM | – | 0.909
[13], 111.1 nM | – | 0.986
[13], 333.3 nM | – | 0.963
[13], 1000 nM | – | 1.05
[13], 3000 nM | – | 0.877
[14], 4.1 nM | – | 0.974
[14], 12.3 nM | – | 0.829
[14], 37 nM | – | 0.841
[14], 111.1 nM | – | 0.884
[14], 333.3 nM | – | 0.928
[14], 1000 nM | – | 1
[14], 3000 nM | – | 0.889
